In patent publication US11623919B2, “Heterocyclic P2X7 antagonists” (AXXAM S.P.A., priority 2017, dated 2023):

Assays:
Type in all cases: cell-based
[1] = target: T1, P2X7 receptor (Homo sapiens, UniProt Q99572); experiment: Screen Quest Fluo-8 No Wash Calcium Assay (Bz-ATP evoked Ca2+ influx, FLIPR); design: hP2X7 (IC50; nM); other: hP2X7; HEK-293 cells stably transfected with P2X7 receptor, Bz-ATP at EC80, Fluo-8 NW; potency; details: hP2X7; HEK-293 cells stably transfected with P2X7 receptor, Bz-ATP at EC80, Fluo-8 NW; potency ranges A-D
T1 sequence (Q99572 1-595): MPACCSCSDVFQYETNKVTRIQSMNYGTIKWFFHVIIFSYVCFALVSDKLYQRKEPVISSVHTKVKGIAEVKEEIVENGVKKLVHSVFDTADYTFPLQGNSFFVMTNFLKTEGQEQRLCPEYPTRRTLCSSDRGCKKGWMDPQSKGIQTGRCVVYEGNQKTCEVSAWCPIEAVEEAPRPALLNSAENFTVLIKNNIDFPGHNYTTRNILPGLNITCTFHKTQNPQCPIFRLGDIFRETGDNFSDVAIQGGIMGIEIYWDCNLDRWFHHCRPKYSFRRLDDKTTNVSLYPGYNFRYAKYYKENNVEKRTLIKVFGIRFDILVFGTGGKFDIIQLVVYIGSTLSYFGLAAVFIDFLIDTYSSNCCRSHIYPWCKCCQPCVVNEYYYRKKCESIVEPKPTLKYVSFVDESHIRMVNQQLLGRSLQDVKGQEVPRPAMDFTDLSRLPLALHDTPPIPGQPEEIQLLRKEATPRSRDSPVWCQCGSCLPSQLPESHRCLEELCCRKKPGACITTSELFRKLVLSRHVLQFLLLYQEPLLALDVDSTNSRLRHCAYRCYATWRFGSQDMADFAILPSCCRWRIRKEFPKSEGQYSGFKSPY
Summary of the method: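 HEK-293 cells stably expressing P2X7 were loaded with Fluo-8 NW for 1 h at RT, then given compound, and 5 min later Bz-ATP at EC80. Fluorescence was read by FLIPR in low divalent cation buffer (0.3 mM Ca2+, 0 mM Mg2+). IC50 came from percent inhibition relative to reference antagonist A438079.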

[2] = target: T1, P2X7 receptor; experiment: YO-PRO-1 uptake assay; design: expressed in transfected cells; details: HEK-293 cells stably transfected with P2X7 receptor; Bz-ATP EC80 (30 μM); Low Divalent Cation Assay Buffer
Excerpt: YO-PRO®-1 is a fluorescent DNA-binding dye with a MW of 374 Da (Molecular Probes®, cat. Y3603). This method is based upon the presumed ability of YO-PRO®-1 to enter through the dilated or “large pore form” of P2X7 receptor and to bind to intracellular DNA whereupon it increases many fold its fluorescence intensity. The dye ha an absorption spectrum compatible with excitation at 488 nm by argon laser sources and its emission wavelength is in the range of 515-575 nm. The aim of this assay was to validate the interaction of antagonists with P2X7 receptor using an alternative readout to Ca2+-sensitive fluorescent dyes.
HEK-293 cells stably transfected with P2X7 receptor were seeded overnight un growth medium at 20,000 cell/well in 384-well plate. 24 hours later, the medium was removed, the cells were washed with Low Divalent Cation Assay Buffer (0.3 mM Ca^2+ and 0 mM Mg^2+) and then pre-loaded with 20 μL/w of 5 μM YO-PRO®-1 dye.
FLIPRTETRA fluorescence measurement immediately started. Then 10 μL/w of test compounds and reference antagonist A438079 at 3×-concentration were injected with the FLIPRTETRA and the kinetic response over a period of five minutes was monitored. A second injection of 10 μL/w of 3× Bz-ATP EC80 (30 μM) was performed with the FLIPRTETRA and the signal of the emitted fluorescence was recorded for additional 60 minutes. All the experiment was carried out with a Low Divalent Cation Assay Buffer (0.3 mM Ca^2+ and 0 mM Mg^2+).
The effect of the test compounds was measured as percent inhibition vs the reference antagonist and IC50 values were calculated accordingly.

[3] = target: T1, P2X7 receptor; experiment: Automated patch-clamp (QPatch16X) P2X7 channel assay; design: expressed in transfected cells; host or cells: HEK-293; details: HEK-293 cells expressing P2X7 channels; whole-cell, held at -80 mV; 100 microM BzATP; compound 1, 10, 100 and 1000 nM; read-out: Q-Patch (IC50)
Summary of the method: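 Whole-cell patch clamp was run at room temperature on HEK-293 cells expressing P2X7, held at −80 mV with CsF internal and pH 7.4 NaCl external solutions. Currents were evoked by 100 µM BzATP alone and then with compound at 1, 10, 100 and 1000 nM. Peak inward currents were normalized and fitted to a Hill equation to give IC50.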

| IC50 [1] [nM] | IC50 [2] [nM] | IC50 [3] [µM] | SMILES |
| --- | --- | --- | --- |
| 200 to 1000 | 184 | 0.149 | Cc1noc(C)c1Cc1noc(=O)n1CC1CCCCC1 [Example 210, 4-(cyclohexylmethyl)-3-[(dimethyl-1,2-oxazol-4-yl)methyl]-4,5-dihydro-1,2,4-oxadiazol-5-one] |
| < 200 | 171 | 0.119 | Cc1noc(C)c1Cc1noc(=O)n1CC1CCC(F)(F)CC1 [Example 211, 4-[(4,4-difluorocyclohexyl)methyl]-3-[(dimethyl-1,2-oxazol-4-yl)methyl]-4,5-dihydro-1,2,4-oxadiazol-5-one] |
